± gives the expanded uncertainty stated by the source.
Details: Liquid, Frequency=8 MHz, Pulse-echo method

CCCC [butane]
Details	speed of sound [m/s]
320 K, 1101.2 kPa	790.66 ± 0.46
320 K, 2101.9 kPa	805.08 ± 0.47
320 K, 2104.1 kPa	805.16 ± 0.47
320 K, 3102.5 kPa	818.93 ± 0.47
320 K, 3104.8 kPa	819.01 ± 0.47
320 K, 4103.2 kPa	832.27 ± 0.48
320 K, 4105.5 kPa	832.35 ± 0.48
320 K, 5103.8 kPa	845.16 ± 0.48
320 K, 5106.1 kPa	845.24 ± 0.48
320 K, 6106.8 kPa	857.71 ± 0.49
320 K, 7107.5 kPa	869.8 ± 0.49
320 K, 8108.2 kPa	881.54 ± 0.5
320 K, 9108.9 kPa	892.95 ± 0.5
320 K, 10109 kPa	904.04 ± 0.51
320 K, 10110 kPa	904.07 ± 0.51
320 K, 12611 kPa	930.65 ± 0.52
320 K, 15113 kPa	955.74 ± 0.53
320 K, 17615 kPa	979.54 ± 0.53
320 K, 20116 kPa	1002.2 ± 0.54
320 K, 25120 kPa	1044.7 ± 0.56
320 K, 30123 kPa	1084 ± 0.57
320 K, 35127 kPa	1120.6 ± 0.59
320 K, 40130 kPa	1155 ± 0.6
320 K, 45134 kPa	1187.5 ± 0.62
320 K, 50137 kPa	1218.4 ± 0.63
320 K, 50138 kPa	1218.4 ± 0.63
320 K, 60144 kPa	1276.1 ± 0.65
320 K, 70152 kPa	1329.2 ± 0.67
320 K, 80158 kPa	1378.5 ± 0.69
320 K, 90166 kPa	1424.7 ± 0.71
320 K, 100173 kPa	1468.2 ± 0.72
340 K, 1100.4 kPa	678.12 ± 0.42
340 K, 2101.1 kPa	696.22 ± 0.42
340 K, 2103.7 kPa	696.27 ± 0.42
340 K, 3101.7 kPa	713.3 ± 0.43
340 K, 3104.3 kPa	713.36 ± 0.43
340 K, 4102.4 kPa	729.53 ± 0.44
340 K, 4105 kPa	729.59 ± 0.44
340 K, 5102.9 kPa	745.01 ± 0.44
340 K, 5105.6 kPa	745.07 ± 0.44
340 K, 6106.2 kPa	759.88 ± 0.45
340 K, 7106.8 kPa	774.1 ± 0.46
340 K, 8107.5 kPa	787.79 ± 0.46
340 K, 9108.1 kPa	801.01 ± 0.47
340 K, 10106 kPa	813.73 ± 0.47
340 K, 10108 kPa	813.77 ± 0.47
340 K, 12610 kPa	844.03 ± 0.48
340 K, 15112 kPa	872.22 ± 0.49
340 K, 17614 kPa	898.7 ± 0.5
340 K, 20116 kPa	923.7 ± 0.51
340 K, 25119 kPa	970.09 ± 0.53
340 K, 30123 kPa	1012.5 ± 0.55
340 K, 35126 kPa	1051.8 ± 0.56
340 K, 40130 kPa	1088.5 ± 0.58
340 K, 45133 kPa	1122.9 ± 0.59
340 K, 50136 kPa	1155.5 ± 0.6
340 K, 60145 kPa	1216 ± 0.63
340 K, 70152 kPa	1271.4 ± 0.65
340 K, 80159 kPa	1322.7 ± 0.67
340 K, 90166 kPa	1370.5 ± 0.69
340 K, 100173 kPa	1415.5 ± 0.7
360 K, 2100.8 kPa	582.29 ± 0.38
360 K, 2103.9 kPa	582.37 ± 0.38
360 K, 3101.4 kPa	604.48 ± 0.39
360 K, 3104.6 kPa	604.56 ± 0.39
360 K, 4102 kPa	625 ± 0.4
360 K, 4102.1 kPa	625 ± 0.4
360 K, 4105.4 kPa	625.09 ± 0.4
360 K, 5102.6 kPa	644.17 ± 0.41
360 K, 5103 kPa	644.18 ± 0.41
360 K, 5106.1 kPa	644.25 ± 0.41
360 K, 6106.9 kPa	662.28 ± 0.41
360 K, 7107.6 kPa	679.33 ± 0.42
360 K, 8108.4 kPa	695.54 ± 0.42
360 K, 9109.1 kPa	711.01 ± 0.43
360 K, 10110 kPa	725.83 ± 0.44
360 K, 12612 kPa	760.45 ± 0.45
360 K, 15113 kPa	792.21 ± 0.46
360 K, 17615 kPa	821.66 ± 0.47
360 K, 20117 kPa	849.23 ± 0.48
360 K, 25120 kPa	899.75 ± 0.5
360 K, 30124 kPa	945.47 ± 0.52
360 K, 35128 kPa	987.41 ± 0.54
360 K, 40131 kPa	1026.3 ± 0.55
360 K, 45135 kPa	1062.7 ± 0.57
360 K, 50138 kPa	1096.9 ± 0.58
360 K, 60145 kPa	1160.2 ± 0.6
360 K, 70152 kPa	1217.7 ± 0.63
360 K, 80159 kPa	1270.8 ± 0.65
360 K, 90166 kPa	1320.2 ± 0.67
360 K, 100173 kPa	1366.5 ± 0.68
380 K, 2103.2 kPa	456.13 ± 0.33
380 K, 3104.2 kPa	488.08 ± 0.34
380 K, 4105 kPa	515.93 ± 0.35
380 K, 5105.8 kPa	540.88 ± 0.36
380 K, 6106.7 kPa	563.62 ± 0.37
380 K, 7107.5 kPa	584.62 ± 0.38
380 K, 8108.3 kPa	604.2 ± 0.39
380 K, 9109.1 kPa	622.6 ± 0.4
380 K, 10110 kPa	639.98 ± 0.4
380 K, 12611 kPa	679.85 ± 0.42
380 K, 15113 kPa	715.71 ± 0.43
380 K, 17614 kPa	748.49 ± 0.45
380 K, 20116 kPa	778.8 ± 0.46
380 K, 25120 kPa	833.69 ± 0.48
380 K, 30123 kPa	882.73 ± 0.5
380 K, 35127 kPa	927.32 ± 0.51
380 K, 40132 kPa	968.4 ± 0.53
380 K, 45135 kPa	1006.6 ± 0.54
380 K, 50139 kPa	1042.4 ± 0.56
380 K, 60146 kPa	1108.3 ± 0.58
380 K, 70153 kPa	1167.9 ± 0.61
380 K, 80160 kPa	1222.7 ± 0.63
380 K, 90167 kPa	1273.5 ± 0.65
380 K, 100174 kPa	1321.1 ± 0.67
400 K, 2704.8 kPa	329.55 ± 0.28
400 K, 3105.1 kPa	351.68 ± 0.29
400 K, 4105.8 kPa	396.18 ± 0.31
400 K, 5106.4 kPa	431.84 ± 0.32
400 K, 6107 kPa	462.27 ± 0.33
400 K, 7107.7 kPa	489.16 ± 0.34
400 K, 8108.4 kPa	513.44 ± 0.35
400 K, 9109.4 kPa	535.71 ± 0.36
400 K, 10110 kPa	556.36 ± 0.37
400 K, 12612 kPa	602.56 ± 0.39
400 K, 15114 kPa	643.08 ± 0.4
400 K, 17616 kPa	679.47 ± 0.42
400 K, 20118 kPa	712.7 ± 0.43
400 K, 25121 kPa	772.06 ± 0.45
400 K, 30125 kPa	824.41 ± 0.47
400 K, 35128 kPa	871.59 ± 0.49
400 K, 40132 kPa	914.76 ± 0.51
400 K, 45135 kPa	954.73 ± 0.53
400 K, 50138 kPa	992.04 ± 0.54
400 K, 60145 kPa	1060.3 ± 0.57
400 K, 70152 kPa	1121.8 ± 0.59
400 K, 80159 kPa	1178.1 ± 0.61
400 K, 90166 kPa	1230.3 ± 0.63
400 K, 100173 kPa	1278.9 ± 0.65
420 K, 4104.4 kPa	244.51 ± 0.25
420 K, 4455.2 kPa	271.52 ± 0.26
420 K, 4605 kPa	281.85 ± 0.27
420 K, 4955.6 kPa	302.47 ± 0.27
420 K, 5105.1 kPa	310.48 ± 0.28
420 K, 5456.1 kPa	327.76 ± 0.28
420 K, 5605.7 kPa	334.63 ± 0.28
420 K, 6105.8 kPa	355.8 ± 0.29
420 K, 6606.5 kPa	374.83 ± 0.3
420 K, 7106.5 kPa	392.2 ± 0.31
420 K, 8107.2 kPa	423.27 ± 0.32
420 K, 9108 kPa	450.7 ± 0.33
420 K, 10109 kPa	475.45 ± 0.34
420 K, 12611 kPa	529.12 ± 0.36
420 K, 15112 kPa	574.77 ± 0.38
420 K, 17615 kPa	614.98 ± 0.39
420 K, 20117 kPa	651.2 ± 0.41
420 K, 25120 kPa	714.99 ± 0.43
420 K, 30124 kPa	770.53 ± 0.45
420 K, 35127 kPa	820.17 ± 0.47
420 K, 40131 kPa	865.3 ± 0.49
420 K, 45134 kPa	906.89 ± 0.51
420 K, 50138 kPa	945.57 ± 0.52
420 K, 55142 kPa	981.83 ± 0.54
420 K, 60145 kPa	1016 ± 0.55
420 K, 70152 kPa	1079.3 ± 0.57
420 K, 80159 kPa	1137 ± 0.6
420 K, 90166 kPa	1190.3 ± 0.62
420 K, 100173 kPa	1240 ± 0.64
430 K, 5105.6 kPa	236.47 ± 0.25
430 K, 5355.3 kPa	258.17 ± 0.26
430 K, 5606 kPa	273.03 ± 0.26
430 K, 5855.6 kPa	287.25 ± 0.27
430 K, 6106.3 kPa	300.07 ± 0.27
430 K, 6356.3 kPa	311.9 ± 0.28
430 K, 6606.6 kPa	323.01 ± 0.28
430 K, 7106.8 kPa	343.37 ± 0.29
430 K, 7106.9 kPa	343.37 ± 0.29
430 K, 7607.2 kPa	361.85 ± 0.29
430 K, 8107.5 kPa	378.83 ± 0.3
430 K, 8607.8 kPa	394.6 ± 0.31
430 K, 9108.1 kPa	409.36 ± 0.31
430 K, 9608.5 kPa	423.28 ± 0.32
430 K, 10109 kPa	436.47 ± 0.32
430 K, 11110 kPa	461 ± 0.33
430 K, 12110 kPa	483.55 ± 0.34
430 K, 13111 kPa	504.47 ± 0.35
430 K, 14112 kPa	524.06 ± 0.36
430 K, 15113 kPa	542.49 ± 0.36
430 K, 17614 kPa	584.59 ± 0.38
430 K, 20116 kPa	622.27 ± 0.4

Source: the NIST ThermoML archive (doi:10.1021/acs.jced.6b00577)
